One compound from patent US7338941B2, “Pharmaceutical compositions for lowering blood glucose and blood cholesterol levels” (Diakron Pharmaceuticals, Inc., priority 2002, dated 2008) can be followed below.

This test relates to db/db mice. Briefly: Blood-sugar-lowering activity in db/db obese mice (oral, daily for 5 days). The note with it: for % change in blood glucose after 5 days of treatment (decrease): reduction vs day 0. Type of test: in vivo. Here is the method:
Db/db mice are commonly used as an in vivo model for studying type II diabetes in animals. Db/db (C57BLKS/J-m+/+Lepr^db) obese mice are obtained from Jackson Laboratories (Maine) and maintained in a temperature-controlled (25° C.) facility with a strict 12-h light/dark cycle and given free access to food and water. Mice are fed pelleted rodent chow which is low in fat (4% w/w). Fasting mice are orally administered with isovitexin dissolved in aqueous vehicle containing 50% PEG50% (10 mg/kg body weight) in a total volume of 200 μL or vehicle alone daily for 5 days. Food is removed from mice 4 hours before the collection of blood from the tail vein. Blood is obtained from mice by drawing one drop of blood (˜50 μL) from the tail vein for glucose analysis. Blood glucose is analyzed using a digital glucometer. Db/db obese mice (n=3: test; n=4: vehicle) were treated daily with 200 μL of isovitexin dissolved in an aqueous solution of PEG 50% (10 mg/kg body weight) or vehicle alone for 5 days. Blood glucose was estimated on day 0, one day prior to initiation of the treatment and on day 5, four hours after withdrawal of food. Blood was obtained from mice by drawing one drop of blood (˜50 μL) from the tail vein for glucose analysis. Blood glucose was analyzed using a digital glucometer and performed in duplicate. Blood glucose values are described as mg/dL±SD. The blood glucose levels in the vehicle treated group (n=4) were 446±35 on day 0 and 477±48 on day 5. […] The results are summarized in Tables 1 and 2 below, and FIG. 1.

Each structure is given as a SMILES string. Several values for one entry are separate records, joined by “and”; a condition that tells them apart may be missing. Identical values can stand only once.

`O=c1cc(-c2ccc(O)cc2)oc2cc(O)c([C@@H]3O[C@H](CO)[C@@H](O)[C@H](O)[C@H]3O)c(O)c12` [Isovitexin, 4H-1-benzopyran-4-one, 6-β-D-glucopyranosyl-5,7-dihydroxy-2-(4-hydroxyphenyl)]: the “blood glucose levels, group mean on day 0” value (db/db mice n=3, isovitexin group before treatment, ± SD) is 493 ± 54 mg/dL. Further, the “blood glucose levels, group mean on day 5” value (db/db mice n=3, oral 10 mg/kg daily for 5 days, ± SD) was found to be 404 ± 10 mg/dL. Also, the “lowering of blood glucose (in words)” value (db/db mice, 10 mg/kg body weight) was “effective in lowering of blood glucose”. Besides, the “blood glucose levels, before treatment (day 0), individual mouse” value (db/db mice, isovitexin group baseline day 0, one day prior to treatment, ± SD of duplicate) was 473 ± 6.36 mg/dL and 554 ± 7.07 mg/dL and 451 ± 21 mg/dL. In addition, the “blood glucose levels, after treatment with isovitexin (day 5), individual mouse” value (db/db mice, oral 10 mg/kg daily for 5 days, 4 h after food withdrawal, ± SD of duplicate, 10 mg/kg) is 400 ± .71 mg/dL and 415 ± 21.9 mg/dL and 396 ± 2.12 mg/dL. Moreover, the “% change in blood glucose after 5 days of treatment (decrease)” value by setting is: (db/db mice, oral 10 mg/kg daily for 5 days, 10 mg/kg) 17.8 ± 7.21 (decrease) %; (db/db mice, oral 10 mg/kg daily for 5 days, listed as DP-1032T, 10 mg/kg) about 17.8%.
